Data on 21 compounds can be found in PubChem BioAssay AID256 (DTP/NCI, 2004).

For the experiment, the system named is CD2F1 mice, L1210 leukemia ip, survival T/C. Kind of experiment: NCI In Vivo Anticancer Drug Screen. Data for tumor model L1210 Leukemia (intraperitoneal) in CD2F1 (CDF1) mice. The note with it: endpoint: mean survival time, higher = longer survival. In a few lines: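 Each value reflects a quotient of treated over vehicle control outcomes in mice with a transplanted tumor.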

Setting [1] is: dose: 100.0 mg/kg/injection, schedule: Q04DX003 (ip), vehicle: saline with Tween-80.
[2] abbreviates: dose: 200.0 mg/kg/injection, schedule: Q04DX003 (ip), vehicle: saline with Tween-80.
The mark [3] stands for this setting: dose: 400.0 mg/kg/injection, schedule: Q04DX003 (ip), vehicle: saline with Tween-80.
[4] abbreviates: dose: 100.0 mg/kg/injection, schedule: Q04DX003 (ip), vehicle: saline.
Where [5] appears, read: dose: 200.0 mg/kg/injection, schedule: Q04DX003 (ip), vehicle: saline.
[6] abbreviates: dose: 100.0 mg/kg/injection, schedule: Q01DX001 (ip), vehicle: saline.
Where [7] appears, read: dose: 200.0 mg/kg/injection, schedule: Q01DX001 (ip), vehicle: saline.

Where “and” joins values, the source holds several entries; their conditions need not be identical. Identical values can stand only once. Toxic doses and inconclusive results are not listed.

Consider `CC1NC(C(=O)O)Cc2cc(O)c(O)cc21` (centres undefined), for which the T/C under setting [1] is 102 % of control, the T/C under setting [2] is 98 % of control and the T/C under setting [3] was 100 % of control.

Take `NP(=O)(OC(c1ccccc1)C12CC3CC(CC(C3)C1)C2)N(CCCl)CCCl` (centres undefined): the T/C is, setting by setting: (dose: 62.5 mg/kg/injection, schedule: Q01DX001 (ip), vehicle: other) 92 % of control; (dose: 125.0 mg/kg/injection, schedule: Q01DX001 (ip), vehicle: other) 97 % of control; (dose: 250.0 mg/kg/injection, schedule: Q01DX001 (ip), vehicle: other) 102 % of control; (dose: 500.0 mg/kg/injection, schedule: Q01DX001 (ip), vehicle: other) 105 % of control.

For `c1cc2c3c(cccc3c1)/C(=C1/Cc3cccc4cccc1c34)C2`, the T/C (dose: 100.0 mg/kg/injection, schedule: Q01DX009 (ip), vehicle: saline with Tween-80) was 107 % of control; the T/C under setting [1] is 103 % of control; the T/C (dose: 200.0 mg/kg/injection, schedule: Q01DX009 (ip), vehicle: saline with Tween-80) is 113 % of control; the T/C under setting [2] was 104 % of control; the T/C (dose: 400.0 mg/kg/injection, schedule: Q01DX009 (ip), vehicle: saline with Tween-80) was 110 % of control; the T/C under setting [3] was 107 % of control.

As to `O=[N+]([O-])c1cccc(/C=C/c2ccccn2)c1`, the T/C runs as follows: (dose: 50.0 mg/kg/injection, schedule: Q01DX009 (ip), vehicle: Klucel (hydroxypropylcellulose) (HPC)) 98 % of control; (dose: 100.0 mg/kg/injection, schedule: Q01DX009 (ip), vehicle: Klucel (hydroxypropylcellulose) (HPC)) 98 % of control; (dose: 200.0 mg/kg/injection, schedule: Q01DX009 (ip), vehicle: Klucel (hydroxypropylcellulose) (HPC)) 90 % of control.

On to `COC1=C(OC)C(=O)C(SCc2ccc(OC)cc2)=CC1=O`, for which the T/C was 102 % of control (dose: 6.25 mg/kg/injection, schedule: Q01DX009 (ip), vehicle: saline with Tween-80); 91 % of control (dose: 12.5 mg/kg/injection, schedule: Q01DX009 (ip), vehicle: saline with Tween-80); 87 % of control (dose: 25.0 mg/kg/injection, schedule: Q01DX009 (ip), vehicle: saline with Tween-80).

Consider `CN(C)C(=S)NN`, for which the T/C runs as follows: (dose: 1.5 mg/kg/injection, schedule: Q01DX001 (ip), vehicle: saline) 92 % of control; (dose: 3.0 mg/kg/injection, schedule: Q01DX001 (ip), vehicle: saline) 97 % of control; (dose: 6.0 mg/kg/injection, schedule: Q01DX001 (ip), vehicle: saline) 97 % of control.

With `COCCCNc1ccc([N+](=O)[O-])cn1`, the T/C reads like this: (dose: 50.0 mg/kg/injection, schedule: Q01DX001 (ip), vehicle: carboxymethylcellulose (CMC)) 100 % of control; (dose: 100.0 mg/kg/injection, schedule: Q01DX001 (ip), vehicle: carboxymethylcellulose (CMC)) 100 % of control; (dose: 200.0 mg/kg/injection, schedule: Q01DX001 (ip), vehicle: carboxymethylcellulose (CMC)) 108 % of control.

With `S=P(N1CC1)(N1CC1)N1CC1.[Cl-].[Cl-].[NH2-].[NH2-].[Pt+4]`, the T/C by setting is: (dose: 0.78 mg/kg/injection, schedule: Q01DX009 (ip), vehicle: Klucel (hydroxypropylcellulose) (HPC)) 112 % of control and 101 % of control; (dose: 1.56 mg/kg/injection, schedule: Q01DX009 (ip), vehicle: Klucel (hydroxypropylcellulose) (HPC)) 114 % of control and 115 % of control and 107 % of control; (dose: 3.13 mg/kg/injection, schedule: Q01DX009 (ip), vehicle: Klucel (hydroxypropylcellulose) (HPC)) 153 % of control; (dose: 6.25 mg/kg/injection, schedule: Q01DX009 (ip), vehicle: Klucel (hydroxypropylcellulose) (HPC)) 111 % of control.

With `COC(=O)C/C(=C/C=C1/C(=O)ON=C1C)c1c(C)[nH]oc1=O`, the T/C (dose: 100.0 mg/kg/injection, schedule: Q01DX009 (ip), vehicle: saline) was 87 % of control; the T/C under setting [4] is 101 % of control; the T/C (dose: 200.0 mg/kg/injection, schedule: Q01DX009 (ip), vehicle: saline) was 92 % of control; the T/C under setting [5] was 106 % of control; the T/C (dose: 400.0 mg/kg/injection, schedule: Q01DX009 (ip), vehicle: saline) was 87 % of control; the T/C (dose: 400.0 mg/kg/injection, schedule: Q04DX003 (ip), vehicle: saline) is 108 % of control.

`O=C(O)/C=C(/Br)C(=O)O`: the T/C was 97 % of control under setting [6] and 108 % of control under setting [7].

Consider `OC(c1ccc(Cl)cc1)c1ccc(Cl)cc1`, for which the T/C by setting is: (dose: 100.0 mg/kg/injection, schedule: Q01DX001 (ip), vehicle: saline with Tween-80) 105 % of control; (dose: 200.0 mg/kg/injection, schedule: Q01DX001 (ip), vehicle: saline with Tween-80) 90 % of control; (dose: 400.0 mg/kg/injection, schedule: Q01DX001 (ip), vehicle: saline with Tween-80) 109 % of control.

Consider `CCN1CCC(CC)(CN2c3ccccc3Sc3ccc(Cl)cc32)C1` (centres undefined), for which the T/C reads like this: under setting [4], 100 % of control; under setting [5], 96 % of control.

For `COc1ccccc1CC(C)N` (centres undefined), the T/C was 90 % of control (dose: 20.0 mg/kg/injection, schedule: Q04DX003 (ip), vehicle: Klucel (hydroxypropylcellulose) (HPC)); 91 % of control (dose: 40.0 mg/kg/injection, schedule: Q04DX003 (ip), vehicle: Klucel (hydroxypropylcellulose) (HPC)); 96 % of control (dose: 80.0 mg/kg/injection, schedule: Q04DX003 (ip), vehicle: Klucel (hydroxypropylcellulose) (HPC)).

With `CCC(=O)Nc1ccccc1OS(=O)(=O)N(C)C`, the T/C was 97 % of control under setting [2] and 98 % of control under setting [3].

For the compound `CC(=O)c1cccc(NS(=O)(=O)c2ccc(C)cc2)c1`, the T/C was 97 % of control under setting [1], 99 % of control under setting [2] and 99 % of control under setting [3].

As to `NC(=O)c1nnc(-c2ccccn2)[nH]c1=O`, the T/C (dose: 25.0 mg/kg/injection, schedule: Q01DX001 (ip), vehicle: Klucel (hydroxypropylcellulose) (HPC)) is 94 % of control; the T/C (dose: 50.0 mg/kg/injection, schedule: Q01DX001 (ip), vehicle: Klucel (hydroxypropylcellulose) (HPC)) was 98 % of control; the T/C (dose: 100.0 mg/kg/injection, schedule: Q01DX001 (ip), vehicle: Klucel (hydroxypropylcellulose) (HPC)) is 98 % of control.

As to `Nc1nc2ccc(CNc3ccc(C(=O)NC(CC(=O)O)C(=O)O)cc3)cc2c(=O)[nH]1` (centres undefined), the T/C (dose: 66.0 mg/kg/injection, schedule: Q04DX003 (ip), vehicle: saline with Tween-80) is 105 % of control; the T/C under setting [1] was 109 % of control; the T/C (dose: 150.0 mg/kg/injection, schedule: Q04DX003 (ip), vehicle: saline with Tween-80) was 105 % of control.

In the case of `Cc1onc(-c2ccccc2)c1C1=N/C(=C\c2ccc(N(C)C)cc2)C(=O)O1`, the T/C (dose: 100.0 mg/kg/injection, schedule: Q04DX002 (ip), vehicle: saline with Tween-80) is 94 % of control; the T/C (dose: 200.0 mg/kg/injection, schedule: Q04DX002 (ip), vehicle: saline with Tween-80) is 113 % of control; the T/C (dose: 400.0 mg/kg/injection, schedule: Q04DX002 (ip), vehicle: saline with Tween-80) is 90 % of control.

Regarding `Cc1ccc(-c2noc(C)n2)cc1`, the T/C was 103 % of control under setting [6]; 105 % of control under setting [7]; 103 % of control (dose: 400.0 mg/kg/injection, schedule: Q01DX001 (ip), vehicle: saline).

Turning to `COc1ccc2nc3c(C)c4ccn(O)cc4c(C)c3c2c1`, the T/C was 106 % of control (dose: 25.0 mg/kg/injection, schedule: Q04DX003 (ip), vehicle: water); 111 % of control (dose: 50.0 mg/kg/injection, schedule: Q04DX003 (ip), vehicle: water); 114 % of control (dose: 100.0 mg/kg/injection, schedule: Q04DX003 (ip), vehicle: water); 105 % of control (dose: 178.0 mg/kg/injection, schedule: Q04DX003 (ip), vehicle: other); 103 % of control (dose: 266.0 mg/kg/injection, schedule: Q04DX003 (ip), vehicle: other); 102 % of control (dose: 400.0 mg/kg/injection, schedule: Q04DX003 (ip), vehicle: other). In addition, the T/C (dose: 600.0 mg/kg/injection, schedule: Q04DX003 (ip), vehicle: other) is 103 % of control.

As to `CC1=C(N2CC2)C(=O)c2c(COC(N)=O)c3n(c2C1=O)CCC3OC(N)=O` (centres undefined), the T/C is 108 % of control (dose: 1.5 mg/kg/injection, schedule: Q01DX001 (ip), vehicle: distilled water + Tween-80); 109 % of control and 112 % of control (dose: 3.0 mg/kg/injection, schedule: Q01DX001 (ip), vehicle: distilled water + Tween-80); 114 % of control and 121 % of control (dose: 6.0 mg/kg/injection, schedule: Q01DX001 (ip), vehicle: distilled water + Tween-80); 120 % of control (dose: 12.0 mg/kg/injection, schedule: Q01DX001 (ip), vehicle: distilled water + Tween-80); 120 % of control (dose: 48.0 mg/kg/injection, schedule: Q01DX001 (ip), vehicle: distilled water + Tween-80).
